Laboratory results: PubChem BioAssay AID248 (DTP/NCI, 2004)
Several values for one entry are separate records, joined by “and”; a condition that tells them apart may be missing. Equal entries are not always repeated. Inconclusive results and toxic doses are left out. Rule as the data show it: active = T/C of 150% or more; inactive = T/C below 125%.

System: L1210 leukemia ip in BDF1 mice, survival T/C
Test: NCI In Vivo Anticancer Drug Screen. Data for tumor model L1210 Leukemia (intraperitoneal) in B6D2F1 (BDF1) mice
Settings: endpoint: mean survival time, higher = longer survival
Procedure, shortened: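 Tumor was transplanted into mice, which were then dosed with test compound or vehicle alone. Survival was recorded for each group, and the treated figure was expressed relative to the control figure.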

[1] = dose: 400.0 mg/kg/injection, schedule: Q04DX003 (ip), vehicle: saline with Tween-80
[2] = dose: 100.0 mg/kg/injection, schedule: Q04DX003 (ip), vehicle: saline with Tween-80
[3] = dose: 200.0 mg/kg/injection, schedule: Q04DX003 (ip), vehicle: saline with Tween-80
[4] = dose: 100.0 mg/kg/injection, schedule: Q01DX001 (ip), vehicle: saline
[5] = dose: 200.0 mg/kg/injection, schedule: Q01DX001 (ip), vehicle: saline
[6] = dose: 400.0 mg/kg/injection, schedule: Q01DX001 (ip), vehicle: saline
[7] = dose: 100.0 mg/kg/injection, schedule: Q04DX003 (ip), vehicle: Klucel (hydroxypropylcellulose) (HPC)
[8] = dose: 200.0 mg/kg/injection, schedule: Q04DX003 (ip), vehicle: Klucel (hydroxypropylcellulose) (HPC)
[9] = dose: 400.0 mg/kg/injection, schedule: Q04DX003 (ip), vehicle: Klucel (hydroxypropylcellulose) (HPC)
[10] = dose: 100.0 mg/kg/injection, schedule: Q01DX001 (ip), vehicle: Klucel (hydroxypropylcellulose) (HPC)
[11] = dose: 200.0 mg/kg/injection, schedule: Q01DX001 (ip), vehicle: Klucel (hydroxypropylcellulose) (HPC)
[12] = dose: 400.0 mg/kg/injection, schedule: Q01DX001 (ip), vehicle: Klucel (hydroxypropylcellulose) (HPC)
[13] = dose: 100.0 mg/kg/injection, schedule: Q04DX002 (ip), vehicle: Klucel (hydroxypropylcellulose) (HPC)
[14] = dose: 200.0 mg/kg/injection, schedule: Q04DX002 (ip), vehicle: Klucel (hydroxypropylcellulose) (HPC)
[15] = dose: 400.0 mg/kg/injection, schedule: Q04DX002 (ip), vehicle: Klucel (hydroxypropylcellulose) (HPC)
[16] = dose: 44.0 mg/kg/injection, schedule: Q01DX Z (ip), vehicle: methylcellulose (MC)
[17] = dose: 100.0 mg/kg/injection, schedule: Q01DX Z (ip), vehicle: methylcellulose (MC)
[18] = dose: 100.0 mg/kg/injection, schedule: Q01DX009 (ip), vehicle: Klucel (hydroxypropylcellulose) (HPC)
[19] = dose: 200.0 mg/kg/injection, schedule: Q01DX009 (ip), vehicle: Klucel (hydroxypropylcellulose) (HPC)
[20] = dose: 400.0 mg/kg/injection, schedule: Q01DX009 (ip), vehicle: Klucel (hydroxypropylcellulose) (HPC)

Measured: T/C

CCn1cc(C(=O)O)c(=O)c2cccc(OC)c21
inactive: dose: 50.0 mg/kg/injection, schedule: Q04DX002 (ip), vehicle: saline 86 % of control | dose: 100.0 mg/kg/injection, schedule: Q04DX002 (ip), vehicle: saline 115 % of control | dose: 200.0 mg/kg/injection, schedule: Q04DX002 (ip), vehicle: saline 100 % of control

Clc1ccc(Nc2ncnc3ncn(Cc4ccccc4)c23)cc1
inactive: dose: 100.0 mg/kg/injection, schedule: Q01DX001 (ip), vehicle: other 89 % of control | dose: 200.0 mg/kg/injection, schedule: Q01DX001 (ip), vehicle: other 93 % of control | dose: 400.0 mg/kg/injection, schedule: Q01DX001 (ip), vehicle: other 101 % of control

O=C(NC(=S)Nc1cc(C(F)(F)F)ccc1Cl)c1ccccc1F
inactive: dose: 12.5 mg/kg/injection, schedule: Q01DX009 (ip), vehicle: saline with Tween-80 93 % of control and 97 % of control | dose: 100.0 mg/kg/injection, schedule: Q01DX001 (ip), vehicle: saline with Tween-80 104 % of control | dose: 100.0 mg/kg/injection, schedule: Q04DX002 (ip), vehicle: saline with Tween-80 97 % of control and 100 % of control | dose: 200.0 mg/kg/injection, schedule: Q01DX001 (ip), vehicle: saline with Tween-80 102 % of control | dose: 200.0 mg/kg/injection, schedule: Q01DX009 (ip), vehicle: saline with Tween-80 86 % of control | dose: 200.0 mg/kg/injection, schedule: Q04DX002 (ip), vehicle: saline with Tween-80 93 % of control and 97 % of control | dose: 400.0 mg/kg/injection, schedule: Q01DX001 (ip), vehicle: saline with Tween-80 102 % of control | dose: 400.0 mg/kg/injection, schedule: Q01DX009 (ip), vehicle: saline with Tween-80 95 % of control | dose: 400.0 mg/kg/injection, schedule: Q04DX002 (ip), vehicle: saline with Tween-80 100 % of control and 91 % of control | [1] 87 % of control

CCCCCCCCCCCCCCCCCC[Se]CCCCCCCCCCCCCCCCCC
inactive: [2] 88 % of control | [3] 92 % of control | [1] 93 % of control

O=Cc1ccc(OCCBr)cc1
inactive: [2] 98 % of control | [3] 97 % of control | [1] 103 % of control

CC(Br)C(Br)CO (centres undefined)
inactive: dose: 100.0 mg/kg/injection, schedule: Q01DX009 (ip), vehicle: saline 103 % of control | dose: 200.0 mg/kg/injection, schedule: Q01DX009 (ip), vehicle: saline 102 % of control | dose: 400.0 mg/kg/injection, schedule: Q01DX009 (ip), vehicle: saline 100 % of control

Cc1nnnn1C
inactive: [4] 95 % of control | dose: 100.0 mg/kg/injection, schedule: Q04DX003 (ip), vehicle: saline 105 % of control | [5] 108 % of control | dose: 200.0 mg/kg/injection, schedule: Q04DX003 (ip), vehicle: saline 107 % of control | [6] 97 % of control | dose: 400.0 mg/kg/injection, schedule: Q04DX003 (ip), vehicle: saline 88 % of control

COc1ccc(C(=S)N(CC(C)C)c2ccccc2)cc1
inactive: [7] 94 % of control | [8] 95 % of control | [9] 94 % of control

Cc1ccccc1OCC(O)COC(N)=O (centres undefined)
inactive: dose: 0.62 mg/kg/injection, schedule: Q04DX003 (ip), vehicle: saline 100 % of control | dose: 1.25 mg/kg/injection, schedule: Q04DX003 (ip), vehicle: saline 100 % of control | dose: 2.5 mg/kg/injection, schedule: Q04DX003 (ip), vehicle: saline 112 % of control | dose: 5.0 mg/kg/injection, schedule: Q04DX003 (ip), vehicle: saline 98 % of control | dose: 10.0 mg/kg/injection, schedule: Q04DX003 (ip), vehicle: saline 98 % of control

CCOc1ccc(-n2c(=O)c(N=Nc3ccc(Br)cc3)c(O)n(-c3ccc(C)cc3)c2=S)cc1
inactive: dose: 50.0 mg/kg/injection, schedule: Q01DX001 (ip), vehicle: Klucel (hydroxypropylcellulose) (HPC) 95 % of control | [10] 101 % of control | [11] 101 % of control

CSc1cc(N)nc(N)c1[N+](=O)[O-]
inactive: [10] 99 % of control | [11] 96 % of control | [12] 94 % of control

CN(C)C(=S)SC(=S)N(C)C
inactive: dose: 25.0 mg/kg/injection, schedule: Q04DX002 (ip), vehicle: Klucel (hydroxypropylcellulose) (HPC) 106 % of control | dose: 50.0 mg/kg/injection, schedule: Q04DX002 (ip), vehicle: Klucel (hydroxypropylcellulose) (HPC) 100 % of control | [13] 89 % of control | [14] 91 % of control | [15] 98 % of control

C=CC[P+](C)(c1ccccc1)c1ccccc1
inactive: dose: 3.13 mg/kg/injection, schedule: Q01DX009 (ip), vehicle: saline 106 % of control

CC1=COC(C)(C2NC(C)CC(C)(C)N2)CC1 (centres undefined)
inactive: [16] 100 % of control | [17] 95 % of control

COC(=O)c1ccccc1N=NNc1ccccc1-c1nc(N)nc(N)n1
inactive: [18] 95 % of control | [7] 103 % of control | [19] 104 % of control | [8] 106 % of control | [20] 98 % of control | [9] 95 % of control

N#CCn1c(C(F)(F)F)nc2nc(Cl)c(Cl)nc21
inactive: dose: 25.0 mg/kg/injection, schedule: Q01DX009 (ip), vehicle: saline with Tween-80 98 % of control | dose: 50.0 mg/kg/injection, schedule: Q01DX009 (ip), vehicle: saline with Tween-80 98 % of control | dose: 100.0 mg/kg/injection, schedule: Q01DX009 (ip), vehicle: saline with Tween-80 96 % of control | [2] 98 % of control

COc1cc([N+](=O)[O-])ccc1NC(=O)OCC(Cl)(Cl)Cl
inactive: [10] 98 % of control | [18] 93 % of control and 92 % of control | [13] 95 % of control and 102 % of control | [7] 99 % of control | [11] 100 % of control | [19] 103 % of control and 92 % of control | [14] 98 % of control and 111 % of control | [8] 94 % of control | [12] 96 % of control | [20] 109 % of control and 88 % of control | [15] 95 % of control and 98 % of control | [9] 105 % of control

CCOC(=O)CNc1ccc(F)c(Cl)c1
inactive: [13] 106 % of control and 108 % of control | [14] 98 % of control and 112 % of control | [15] 102 % of control | dose: 600.0 mg/kg/injection, schedule: Q04DX002 (ip), vehicle: Klucel (hydroxypropylcellulose) (HPC) 98 % of control

Cc1ccc(NC(=O)NCC(=O)O)cc1
inactive: dose: 100.0 mg/kg/injection, schedule: Q01DX001 (ip), vehicle: carboxymethylcellulose (CMC) 101 % of control | dose: 200.0 mg/kg/injection, schedule: Q01DX001 (ip), vehicle: carboxymethylcellulose (CMC) 97 % of control | dose: 400.0 mg/kg/injection, schedule: Q01DX001 (ip), vehicle: carboxymethylcellulose (CMC) 109 % of control

O=C(COc1ccc(Cl)cc1C(=O)O)Nc1cccc(NC(=O)Nc2cc(S(=O)(=O)F)ccc2Cl)c1
inactive: [10] 94 % of control | [11] 88 % of control | [12] 91 % of control

CCOc1ccc(NC(=O)OCCCl)cc1
inactive: dose: 75.0 mg/kg/injection, schedule: Q04DX002 (ip), vehicle: Klucel (hydroxypropylcellulose) (HPC) 105 % of control | dose: 150.0 mg/kg/injection, schedule: Q04DX002 (ip), vehicle: Klucel (hydroxypropylcellulose) (HPC) 105 % of control | dose: 300.0 mg/kg/injection, schedule: Q04DX002 (ip), vehicle: Klucel (hydroxypropylcellulose) (HPC) 101 % of control

CN(C)c1ccc(Cc2ccc(N(C)C)cc2[N+](=O)[O-])c([N+](=O)[O-])c1
inactive: dose: 50.0 mg/kg/injection, schedule: Q01DX009 (ip), vehicle: Klucel (hydroxypropylcellulose) (HPC) 100 % of control | [18] 98 % of control and 92 % of control | [7] 101 % of control and 102 % of control | [19] 97 % of control and 101 % of control | [8] 102 % of control and 104 % of control | [20] 101 % of control and 92 % of control | [9] 98 % of control and 105 % of control

Fc1ccc(-n2ncc3c2-c2ccccc2CCC3)cc1
inactive: [4] 108 % of control | [5] 104 % of control | [6] 108 % of control

c1ccc2c(c1)C1CCCCC2c2ccccc21
inactive: [10] 102 % of control | [11] 97 % of control | [12] 100 % of control

O=c1ccnc(C(F)(F)F)[nH]1
inactive: [16] 87 % of control | dose: 66.0 mg/kg/injection, schedule: Q01DX Z (ip), vehicle: methylcellulose (MC) 96 % of control | [17] 101 % of control
